Experimental data taken from US20210275514A1, “COMPOUNDS FOR USE IN TREATING KIDNEY DISORDERS” (Hoffmann-La Roche Inc., priority 2018, published 2021).
Entries after “also recorded” stand apart in the source; their conditions may differ.

Tested on: ABCA1
Experiment: ABCA1 expression by western blot in differentiated podocytes
Format: cell-based, human
Conditions: 18 h
Procedure: Podocytes differentiated for 14 days were starved in RPMI-0.2% FBS for 18 h and then treated with freshly prepared dilutions of compounds in full media for 18 h at 37° C. and 5% CO2. Compound concentrations of 1 μM, 5 μM and 10 μM were evaluated. Cells were then washed with PBS and lysed with 1× cell lysis buffer (Cell Signaling) supplemented with protease and phosphatase inhibitor cocktails (Roche). Total protein content was determined by BCA method (Pierce, Thermoscientific). ABCA1 expression was analyzed by western blot.
Lysates, or cell fractions were incubated with buffer sample at 55° C. for 10 min under reducing conditions. A total of […] of protein in lysates, and one third of the volume collected in cell fraction preps, were separated by SDSPAGE in 4-20% gels (Biorad) and proteins were then transferred to PVDF membranes. Membranes were blocked with 5% milk and blotted with protein-specific antibodies for 18 h at 4° C. The following antibodies were used: mouse anti-ABCA1 (Abcam; 1:1,000), rabbit anti-GAPDH antibody (Millipore; 1:10,000), rabbit anti-MEK and anti-Na^+/K^+ ATPase (Cell Signaling; 1:1,000). After washing with PBS-T, membranes were incubated with anti-mouse and anti-rabbit specific antibodies conjugated to HRP (Promega) 1:10,000 in 5% milk. Membranes were washed and signal was developed using Western bright ECL substrate (Advansta).

Compound	ABCA1 expression (western blot, whole cell lysates) (1 μM, 5 μM and 10 μM evaluated)	ABCA1 expression (western blot, whole cell lysates) (doses as low as 1 uM, FIG. 4A)
O=C(Nc1cncnc1)c1ccc(OCC(F)(F)F)c(-c2ccc(Cl)cc2)n1 [Cpd F, 6-(4-chlorophenyl)-N-(pyrimidin-5-yl)-5-(2,2,2-trifluoroethoxy)picolinamide]	only Cpd A, and Cpd G, increased ABCA1 expression	
O=C(O)c1ccc(-c2nnc([C@](F)([C@H]3Cc4[nH]c5ccc(Cl)cc5c4C3)S(=O)(=O)c3cccc(Br)c3)o2)cc1 (racemic) [Cpd D, 4-{5-[(RS)-(3-Bromo-benzenesulfonyl)-((SR)-7-chloro-1,2,3,4-tetrahydro-cyclopenta[b]indol-2-yl)-fluoro-methyl]-[1,3,4]oxadiazol-2-yl}-benzoic acid]		strong induction; also recorded: markedly increased
Cc1nnc([C@](F)([C@H]2Cc3[nH]c4ccc(Cl)cc4c3C2)S(=O)(=O)c2ccccc2)o1 [Cpd E, (R)-2-[(S)-Benzenesulfonyl-fluoro-(5-methyl-[1,3,4]oxadiazol-2-yl)-methyl]-7-chloro-1,2,3,4-tetrahydro-cyclopenta[b]indole]		strong induction; also recorded: markedly increased
